# Where two headings read alike, the source gives them in different places.
# Key:
# Mtb H37Rv strain [1] = assay: microplate alamar blue assay (MABA), MIC; assay type: cell-based, Mycobacterium tuberculosis; details: lowest concentration leading to at least 90% inhibition of bacterial growth signal, average of three measurements
# Pks13-TE = Pks13-TE (Mycobacterium tuberculosis, UniProt I6X8D2); assay: biochemical; assay type: binding; details: Pks13-TE 30 µM, 3% DMSO, average of three measurements; for ΔTm at 150 µM: compound 150 µM (1:5); for ΔTm at 300 µM: compound 300 µM (1:10)
# Mtb H37Rv strain [2] = details: MABA, cited from earlier work
# [3] = liver microsome stability assay; details: for Remaining (T = 60 min) / T1/2: human liver microsomes; for Remaining (T = 60 min): 60 min incubation; for T1/2: 0.1 µM compound, NADPH 1 mM, 37 °C
# [4] = human, microsomes, 0.1 µM, pH 7.4; for Remaining (T = 60 min): 1 h
# in vitro = details: human, microsomes, pH 7.4
# [5] = Mycobacterium tuberculosis, H37RV, read-out: MIC
# Sequence of Pks13-TE (I6X8D2 1451-1733): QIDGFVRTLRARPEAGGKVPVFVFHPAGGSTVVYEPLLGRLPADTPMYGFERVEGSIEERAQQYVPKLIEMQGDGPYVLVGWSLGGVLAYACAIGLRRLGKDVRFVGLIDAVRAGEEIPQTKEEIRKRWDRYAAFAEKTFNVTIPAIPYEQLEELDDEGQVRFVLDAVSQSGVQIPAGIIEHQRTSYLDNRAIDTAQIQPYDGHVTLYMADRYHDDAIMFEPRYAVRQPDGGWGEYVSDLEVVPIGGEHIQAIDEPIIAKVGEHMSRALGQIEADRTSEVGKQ
compound,measurement,setting,value
"CNC(=O)c1c(-c2ccc(O)cc2)n(-c2ccccc2)c2ccc(O)c(CN3CCCCC3)c12 [Compound 24, 5-hydroxy-2-(4-hydroxyphenyl)-N-methyl-1-phenyl-4-(piperidin-1-ylmethyl)-1H-indole-3-carboxamide]",MIC,Mtb H37Rv strain [1]; [5],4 µg/mL
"CNC(=O)c1c(C)n(-c2ccccc2)c2ccc(O)c(CN3CCCCC3)c12 [Compound 29, 5-hydroxy-N,2-dimethyl-1-phenyl-4-(piperidin-1-ylmethyl)-1H-indole-3-carboxamide]",MIC,Mtb H37Rv strain [1]; [5],> 64 µg/mL
same,MIC,Mtb H37Rv strain [1],>64 µg/mL
"CCOC(=O)c1c(C)n(-c2ccc(N(C)C)cc2)c2ccc(O)c(CN3CCCCC3)c12 [Compound 49, Ethyl 1-(4-(dimethylamino)phenyl)-5-hydroxy-2-methyl-4-(piperidin-1-ylmethyl)-1H-indole-3-carboxylate]",MIC,Mtb H37Rv strain [1]; [5],0.5 to 8 µg/mL
same,MIC,Mtb H37Rv strain [1],1 µg/mL
"O=c1oc2cc(O)ccc2c2oc3ccc(O)c(CN4CCCCC4)c3c12 [Compound 7, reference compound]",ΔTm at 150 µM,Pks13-TE,11.4 ± 0.03 °C
same,ΔTm at 300 µM,Pks13-TE,10.5 ± 0.01 °C
same,MIC,Mtb H37Rv strain [2]; reference compounds for comparison,0.0039 µg/mL
"CC(=O)c1c(C)n(-c2ccc(N(C)C)cc2)c2ccc(O)c(CN3CCCCC3)c12 [Compound 50, 1-(1-(4-(dimethylamino)phenyl)-5-hydroxy-2-methyl-4-(piperidin-1-ylmethyl)-1H-indol-3-yl)ethan-1-one]",MIC,Mtb H37Rv strain [1]; [5],0.5 µg/mL
"CCNC(=O)c1c(-c2ccc(OC)cc2)n(-c2ccccc2)c2ccc(O)c(CN3CCCCC3)c12 [Compound 23, N-ethyl-5-hydroxy-2-(4-methoxyphenyl)-1-phenyl-4-(piperidin-1-ylmethyl)-1H-indole-3-carboxamide]",MIC,Mtb H37Rv strain [1]; [5],16 µg/mL
"CC(=O)c1c(C)n(-c2ccc(C(C)(C)C)cc2)c2ccc(O)c(CN3CCCC3)c12 [Compound 56, 1-(1-(4-(tert-butyl)phenyl)-5-hydroxy-2-methyl-4-(pyrrolidin-1-ylmethyl)-1H-indol-3-yl)ethan-1-one]",MIC,Mtb H37Rv strain [1]; [5],0.25 µg/mL
"CNC(=O)c1c(C)n(-c2ccc(OC)cc2)c2ccc(O)c(CN3CCCCC3)c12 [Compound 30, 5-hydroxy-1-(4-methoxyphenyl)-N,2-dimethyl-4-(piperidin-1-ylmethyl)-1H-indole-3-carboxamide]",MIC,Mtb H37Rv strain [1]; [5],16 µg/mL
O=C(O)Cc1ccccc1Nc1c(Cl)cccc1Cl [Diclofenac],Remaining (T = 60 min),[3],0.1%
same,CLint(liver),"[3]; human, scaled from CLint(mic) with 45 mg microsomal protein/g liver, 20 g liver/kg",223.1 mL/min/kg
"CCOC(=O)c1c(-c2ccc(O)cc2)[nH]c2ccc(O)c(CN3CCCCC3)c12 [Compound 14, Ethyl 5-hydroxy-2-(4-hydroxyphenyl)-4-(piperidin-1-ylmethyl)-1H-indole-3-carboxylate]",ΔTm at 150 µM,Pks13-TE,5.5 ± 0.04 °C
same,ΔTm at 300 µM,Pks13-TE,4.9 ± 0.02 °C
"CCOC(=O)c1c(-c2ccc(O)cc2)n(-c2ccccc2)c2ccc(O)c(CN3CCCCC3)c12 [Compound 18, Ethyl 5-hydroxy-2-(4-hydroxyphenyl)-1-phenyl-4-(piperidin-1-ylmethyl)-1H-indole-3-carboxylate]",MIC,Mtb H37Rv strain [1]; [5],2 to 32 µg/mL
same,MIC,Mtb H37Rv strain [1],2 µg/mL
"CCOC(=O)c1c(C)n(-c2ccccc2)c2ccc(O)c(CN3CCCCC3)c12 [Compound 28, Ethyl 5-hydroxy-2-methyl-1-phenyl-4-(piperidin-1-ylmethyl)-1H-indole-3-carboxylate]",MIC,Mtb H37Rv strain [1]; [5],8 µg/mL
same,ΔTm at 150 µM,Pks13-TE,8.6 ± 0.01 °C
same,ΔTm at 300 µM,Pks13-TE,7.8 ± 0.04 °C
"CCNC(=O)c1c(-c2ccc(O)cc2)n(-c2ccccc2)c2ccc(O)c(CN3CCCCC3)c12 [Compound 25, N-ethyl-5-hydroxy-2-(4-hydroxyphenyl)-1-phenyl-4-(piperidin-1-ylmethyl)-1H-indole-3-carboxamide]",MIC,Mtb H37Rv strain [1]; [5],8 µg/mL
"CCOC(=O)c1c(-c2ccc(OC)cc2)[nH]c2ccc(O)c(CN3CCCCC3)c12 [Compound 13, Ethyl 5-hydroxy-2-(4-methoxyphenyl)-4-(piperidin-1-ylmethyl)-1H-indole-3-carboxylate]",MIC,Mtb H37Rv strain [1]; [5],32 µg/mL
"CC(=O)c1c(C)n(-c2ccc(C(C)C)cc2)c2ccc(O)c(CN3CCCCC3)c12 [Compound 54, 1-(5-hydroxy-1-(4-isopropylphenyl)-2-methyl-4-(piperidin-1-ylmethyl)-1H-indol-3-yl)ethan-1-one]",MIC,Mtb H37Rv strain [1]; [5],0.125 µg/mL
"CCOC(=O)c1c(C)n(-c2ccc(OC)cc2)c2ccc(O)c(CN3CCCCC3)c12 [Compound 34, Ethyl 5-hydroxy-1-(4-methoxyphenyl)-2-methyl-4-(piperidin-1-ylmethyl)-1H-indole-3-carboxylate]",MIC,Mtb H37Rv strain [1]; [5],0.5 to 8 µg/mL
same,MIC,Mtb H37Rv strain [1],1 µg/mL
CCOC(=O)c1c(-c2ccccc2)[nH]c2ccc(O)c(CN3CCCCC3)c12 [Compound 9],MIC,Mtb H37Rv strain [2]; reference compound for comparison,32 µg/mL
"CC(=O)c1c(C)n(-c2ccc(C(C)(C)C)cc2)c2ccc(O)c(CN3CCCCC3)c12 [Compound 55, 1-(1-(4-(tert-butyl)phenyl)-5-hydroxy-2-methyl-4-(piperidin-1-ylmethyl)-1H-indol-3-yl)ethan-1-one]",MIC,Mtb H37Rv strain [1]; [5],0.125 µg/mL
"CC(=O)c1c(C)n(-c2ccc(N(C)C)cc2)c2ccc(O)c(CN(C)C)c12 [Compound 51, 1-(4-((dimethylamino)methyl)-1-(4-(dimethylamino)phenyl)-5-hydroxy-2-methyl-1H-indol-3-yl)ethan-1-one]",MIC,Mtb H37Rv strain [1]; [5],2 µg/mL
"CC(=O)c1c(C)n(-c2ccc(Br)cc2)c2ccc(O)c(CN3CCCCC3)c12 [Compound 58, 1-(1-(4-bromophenyl)-5-hydroxy-2-methyl-4-(piperidin-1-ylmethyl)-1H-indol-3-yl)ethan-1-one]",MIC,Mtb H37Rv strain [1]; [5],0.125 µg/mL
same,ΔTm at 150 µM,Pks13-TE,9.5 ± 0.04 °C
same,ΔTm at 300 µM,Pks13-TE,7.6 ± 0.01 °C
same,CLint(liver),[4],21.5 mL/min/kg
same,CLint(mic),[4],23.9 µL/min/mg
same,Remaining (T = 60 min),[4],47.3%
same,T1/2,[3],58.0 min
"CC(=O)c1c(C)n(-c2ccc(-c3ccccc3)cc2)c2ccc(O)c(CN3CCCCC3)c12 [Compound 45, 1-(1-([1,1′-biphenyl]-4-yl)-5-hydroxy-2-methyl-4-(piperidin-1-ylmethyl)-1H-indol-3-yl)ethan-1-one]",MIC,Mtb H37Rv strain [1]; [5],0.0625 µg/mL
same,ΔTm at 150 µM,Pks13-TE,14 ± 0.04 °C
same,ΔTm at 300 µM,Pks13-TE,13.2 ± 0.65 °C
"CC(=O)c1c(-c2ccc(O)cc2)n(-c2ccccc2)c2ccc(O)c(CN3CCCCC3)c12 [Compound 20, 1-(5-hydroxy-2-(4-hydroxyphenyl)-1-phenyl-4-(piperidin-1-ylmethyl)-1H-indol-3-yl) ethan-1-one]",MIC,Mtb H37Rv strain [1]; [5],16 µg/mL
"CCOC(=O)c1c(-c2ccc(OC)cc2)n(-c2ccccc2)c2ccc(O)c(CN3CCCCC3)c12 [Compound 17, Ethyl 5-hydroxy-2-(4-methoxyphenyl)-1-phenyl-4-(piperidin-1-ylmethyl)-1H-indole-3-carboxylate]",MIC,Mtb H37Rv strain [1]; [5],4 µg/mL
"CCOC(=O)c1c(C)n(-c2ccc(C)cc2)c2ccc(O)c(CN3CCCCC3)c12 [Compound 31, Ethyl 5-hydroxy-2-methyl-4-(piperidin-1-ylmethyl)-1-(p-tolyl)-1H-indole-3-carboxylate]",MIC,Mtb H37Rv strain [1]; [5],0.5 to 8 µg/mL
same,MIC,Mtb H37Rv strain [1],1 µg/mL
"CC(=O)c1c(C)n(-c2ccc(N(C)C)cc2)c2ccc(O)c(CN3CCC(C)CC3)c12 [Compound 53, 1-(1-(4-(dimethylamino)phenyl)-5-hydroxy-2-methyl-4-((4-methylpiperidin-1-yl)methyl)-1H-indol-3-yl)ethan-1-one]",MIC,Mtb H37Rv strain [1]; [5],1 µg/mL
"COc1ccc(-c2c(C(C)=O)c3c(CN4CCCCC4)c(O)ccc3n2-c2ccccc2)cc1 [Compound 19, 1-(5-hydroxy-2-(4-methoxyphenyl)-1-phenyl-4-(piperidin-1-ylmethyl)-1H-indol-3-yl) ethan-1-one]",MIC,Mtb H37Rv strain [1]; [5],4 µg/mL
Ethyl 1-(4-(tert-butyl)phenyl)-5-hydroxy-2-methyl-4-(piperidin-1-ylmethyl)-1H-indole-3-carboxylate [Compound 57],MIC,Mtb H37Rv strain [1],0.5 µg/mL
"CNC(=O)c1c(-c2ccc(OC)cc2)n(-c2ccccc2)c2ccc(O)c(CN3CCCCC3)c12 [Compound 22, 5-hydroxy-2-(4-methoxyphenyl)-N-methyl-1-phenyl-4-(piperidin-1-ylmethyl)-1H-indole-3-carboxamide]",MIC,Mtb H37Rv strain [1]; [5],16 µg/mL
"CC(=O)c1c(C)n(-c2ccc(N3CCCCC3)cc2)c2ccc(O)c(CN3CCCCC3)c12 [Compound 48, 1-(5-hydroxy-2-methyl-1-(4-(piperidin-1-yl)phenyl)-4-(piperidin-1-ylmethyl)-1H-indol-3-yl) ethan-1-one]",MIC,Mtb H37Rv strain [1]; [5],0.125 µg/mL
same,ΔTm at 150 µM,Pks13-TE,14.6 ± 0.04 °C
same,ΔTm at 300 µM,Pks13-TE,14 ± 0.01 °C
same,Remaining (T = 60 min),[4],11.3%
same,CLint scaled at 0.1 µM,in vitro,60.2 mL/min/kg
same,microsomal CLint at 0.1 µM,in vitro,66.9 µL/min/mg
same,half-life at 0.1 µM,"[3]; human, liver microsomes, pH 7.4",20.7 min
"CC(=O)c1c(C)n(-c2ccc(N(C)C)cc2)c2ccc(O)c(CN3CCCC3)c12 [Compound 52, 1-(1-(4-(dimethylamino)phenyl)-5-hydroxy-2-methyl-4-(pyrrolidin-1-ylmethyl)-1H-indol-3-yl)ethan-1-one]",MIC,Mtb H37Rv strain [1]; [5],0.5 µg/mL
same,ΔTm at 150 µM,Pks13-TE,11.4 ± 0.02 °C
same,ΔTm at 300 µM,Pks13-TE,10.3 ± 0.04 °C
"CCOC(=O)c1c(C)n(-c2ccc(F)cc2)c2ccc(O)c(CN3CCCCC3)c12 [Compound 37, Ethyl 1-(4-fluorophenyl)-5-hydroxy-2-methyl-4-(piperidin-1-ylmethyl)-1H-indole-3-carboxylate]",MIC,Mtb H37Rv strain [1]; [5],0.5 to 8 µg/mL
same,MIC,Mtb H37Rv strain [1],1 µg/mL
